Reference: patent US20220378706A1, “PHARMACEUTICAL COMPOSITION COMPRISING PDE9 INHIBITOR” (Eisai R&D Management Co., Ltd., priority 2017, published 2022)
Where two headings read alike, the source gives them in different places.

Assay: Multiple ascending dose study: plasma pharmacokinetics
Format: in vivo
Details: human, po; for Tmax: read-out: tmax Median
Procedure: Four sequential cohorts of healthy participants (≥50 years and ≤85 years old) were treated with multiple ascending doses of Compound A up to the maximum tolerated dose (MTD). A total of 6 participants per cohort were randomized to Compound A. Proposed doses of Compound A were:
Participants received Compound A capsules, orally once daily (QD) on Days 1 to 14 after an overnight fast of at least 10 hours. Compound A was administered orally with 240 milliliter (mL) (8 fluid ounces) of water.
1) Maximum drug concentration (Cmax) [Time Frame: Day 1 and Day 14]
Blood samples were collected on Day 1 at predose and postdose 0.5 (30 minutes), 1, 1.5, 2, 3, 4, 5, 6, 8, 12, and 18 hours; Day 14 (at predose and postdose 0.5, 1, 1.5, 2, 3, 4, 5, 6, 8, 12, and 18 hours); and Day 15 (24 hours postdose from Day 14).
2) Mean time to reach maximum (peak) drug concentration (tmax) [Time Frame: Day 1 and Day 14]
4) Mean area under the concentration-time curve from zero time extrapolated to infinity (AUC(0-inf)) [Time Frame: Day 14]

Question: For COc1ncc(C)c(-c2ccc3c(c2)[nH]c(=O)c2cnn([C@H]4CCOC4)c23)c1C [Compound A, (S)-7-(2-methoxy-3,5-dimethylpyridin-4-yl)-1-(tetrahydrofuran-3-yl)-1H-pyrazolo[4,3-c]quin olin-4(5H)-one], which Cmax (50 mg, Part C, 50 mg oral, read-out: Cmax GM (% CV)) is on record?
Answer: 594 ng/mL

Question: And the Cmax (50 mg, Part C, 50 mg oral, read-out: Cmax Mean (SD))?
Answer: 608 ng/mL

Question: What about the Cmax (50 mg, Part C, 50 mg oral, read-out: Cmax Median) of the same molecule?
Answer: 590 ng/mL

Question: What about the Tmax (50 mg, Part C, 50 mg oral) of the same molecule?
Answer: 1.98 h

Question: And the AUC(0-t) (100 mg, Day 1, 100 mg QD oral, read-out: AUC(0-24 h) GM (% CV))?
Answer: 5230 ng·h/mL

Question: What about the AUC(0-t) (100 mg, Day 1, 100 mg QD oral, read-out: AUC(0-24 h) Mean (SD)) of the same molecule?
Answer: 5250 ng·h/mL

Question: What about the AUC(0-t) (100 mg, Day 1, 100 mg QD oral, read-out: AUC(0-24 h) Median) of the same molecule?
Answer: 5180 ng·h/mL

Question: What about the Cmax (100 mg, Day 1, 100 mg QD oral, read-out: Cmax GM (% CV)) of the same molecule?
Answer: 366 ng/mL

Question: And the Cmax (100 mg, Day 1, 100 mg QD oral, read-out: Cmax Mean (SD))?
Answer: 373 ng/mL

Question: And the Cmax (100 mg, Day 1, 100 mg QD oral, read-out: Cmax Median)?
Answer: 344 ng/mL

Question: And the Tmax (100 mg, Day 1, 100 mg QD oral)?
Answer: 2.53 h

Question: What about the AUC(0-t) (100 mg, Day 14, 100 mg QD oral, read-out: AUC(0-24 h) GM (% CV)) of the same molecule?
Answer: 16600 ng·h/mL

Question: What about the AUC(0-t) (100 mg, Day 14, 100 mg QD oral, read-out: AUC(0-24 h) Mean (SD)) of the same molecule?
Answer: 16900 ng·h/mL

Question: What about the AUC(0-t) (100 mg, Day 14, 100 mg QD oral, read-out: AUC(0-24 h) Median) of the same molecule?
Answer: 16800 ng·h/mL

Question: What about the AUC(0-inf) (100 mg, Day 14, 100 mg QD oral, read-out: AUC(0-inf) GM (% CV)) of the same molecule?
Answer: 56400 ng·h/mL

Question: And the AUC(0-inf) (100 mg, Day 14, 100 mg QD oral, read-out: AUC(0-inf) Mean (SD))?
Answer: 58600 ng·h/mL

Question: What about the AUC(0-inf) (100 mg, Day 14, 100 mg QD oral, read-out: AUC(0-inf) Median) of the same molecule?
Answer: 62700 ng·h/mL

Question: What about the Cmax (100 mg, Day 14, 100 mg QD oral, read-out: Cmax GM (% CV)) of the same molecule?
Answer: 1010 ng/mL

Question: And the Cmax (100 mg, Day 14, 100 mg QD oral, read-out: Cmax Mean (SD))?
Answer: 1020 ng/mL

Question: What about the Cmax (100 mg, Day 14, 100 mg QD oral, read-out: Cmax Median) of the same molecule?
Answer: 1030 ng/mL

Question: And the Tmax (100 mg, Day 14, 100 mg QD oral)?
Answer: 2.56 h

Question: And the AUC(0-t) (200 mg, Day 1, 200 mg QD oral, read-out: AUC(0-24 h) GM (% CV))?
Answer: 8650 ng·h/mL

Question: What about the AUC(0-t) (200 mg, Day 1, 200 mg QD oral, read-out: AUC(0-24 h) Mean (SD)) of the same molecule?
Answer: 9050 ng·h/mL

Question: And the AUC(0-t) (200 mg, Day 1, 200 mg QD oral, read-out: AUC(0-24 h) Median)?
Answer: 10400 ng·h/mL

Question: And the Cmax (200 mg, Day 1, 200 mg QD oral, read-out: Cmax GM (% CV))?
Answer: 687 ng/mL

Question: What about the Cmax (200 mg, Day 1, 200 mg QD oral, read-out: Cmax Mean (SD)) of the same molecule?
Answer: 740 ng/mL

Question: And the Cmax (200 mg, Day 1, 200 mg QD oral, read-out: Cmax Median)?
Answer: 813 ng/mL

Question: What about the Tmax (200 mg, Day 1, 200 mg QD oral) of the same molecule?
Answer: 2.01 h

Question: And the AUC(0-t) (200 mg, Day 14, 200 mg QD oral, read-out: AUC(0-24 h) GM (% CV))?
Answer: 22800 ng·h/mL

Question: What about the AUC(0-t) (200 mg, Day 14, 200 mg QD oral, read-out: AUC(0-24 h) Mean (SD)) of the same molecule?
Answer: 23100 ng·h/mL

Question: And the AUC(0-t) (200 mg, Day 14, 200 mg QD oral, read-out: AUC(0-24 h) Median)?
Answer: 21300 ng·h/mL

Question: What about the AUC(0-inf) (200 mg, Day 14, 200 mg QD oral, read-out: AUC(0-inf) GM (% CV)) of the same molecule?
Answer: 70500 ng·h/mL

Question: What about the AUC(0-inf) (200 mg, Day 14, 200 mg QD oral, read-out: AUC(0-inf) Mean (SD)) of the same molecule?
Answer: 72200 ng·h/mL

Question: And the AUC(0-inf) (200 mg, Day 14, 200 mg QD oral, read-out: AUC(0-inf) Median)?
Answer: 61900 ng·h/mL

Question: And the Cmax (200 mg, Day 14, 200 mg QD oral, read-out: Cmax GM (% CV))?
Answer: 1680 ng/mL

Question: And the Cmax (200 mg, Day 14, 200 mg QD oral, read-out: Cmax Mean (SD))?
Answer: 1730 ng/mL

Question: And the Cmax (200 mg, Day 14, 200 mg QD oral, read-out: Cmax Median)?
Answer: 1950 ng/mL

Question: And the Tmax (200 mg, Day 14, 200 mg QD oral)?
Answer: 2 h

Question: And the AUC(0-t) (400 mg, Day 1, 400 mg QD oral, Japanese, read-out: AUC(0-24 h) GM (% CV))?
Answer: 18300 ng·h/mL

Question: What about the AUC(0-t) (400 mg, Day 1, 400 mg QD oral, Japanese, read-out: AUC(0-24 h) Mean (SD)) of the same molecule?
Answer: 18400 ng·h/mL

Question: What about the AUC(0-t) (400 mg, Day 1, 400 mg QD oral, Japanese, read-out: AUC(0-24 h) Median) of the same molecule?
Answer: 18900 ng·h/mL

Question: And the Cmax (400 mg, Day 1, 400 mg QD oral, Japanese, read-out: Cmax GM (% CV))?
Answer: 1510 ng/mL

Question: And the Cmax (400 mg, Day 1, 400 mg QD oral, Japanese, read-out: Cmax Mean (SD))?
Answer: 1520 ng/mL

Question: And the Cmax (400 mg, Day 1, 400 mg QD oral, Japanese, read-out: Cmax Median)?
Answer: 1510 ng/mL

Question: And the Tmax (400 mg, Day 1, 400 mg QD oral, Japanese)?
Answer: 2 h

Question: And the AUC(0-t) (400 mg, Day 1, 400 mg QD oral, Non-Japanese, read-out: AUC(0-24 h) GM (% CV))?
Answer: 14500 ng·h/mL

Question: And the AUC(0-t) (400 mg, Day 1, 400 mg QD oral, Non-Japanese, read-out: AUC(0-24 h) Mean (SD))?
Answer: 14600 ng·h/mL

Question: What about the AUC(0-t) (400 mg, Day 1, 400 mg QD oral, Non-Japanese, read-out: AUC(0-24 h) Median) of the same molecule?
Answer: 14700 ng·h/mL

Question: And the Cmax (400 mg, Day 1, 400 mg QD oral, Non-Japanese, read-out: Cmax GM (% CV))?
Answer: 1100 ng/mL

Question: What about the Cmax (400 mg, Day 1, 400 mg QD oral, Non-Japanese, read-out: Cmax Mean (SD)) of the same molecule?
Answer: 1100 ng/mL

Question: And the Cmax (400 mg, Day 1, 400 mg QD oral, Non-Japanese, read-out: Cmax Median)?
Answer: 1140 ng/mL

Question: And the Tmax (400 mg, Day 1, 400 mg QD oral, Non-Japanese)?
Answer: 1.76 h

Question: And the AUC(0-t) (400 mg, Day 14, 400 mg QD oral, Japanese, read-out: AUC(0-24 h) GM (% CV))?
Answer: 42700 ng·h/mL

Question: And the AUC(0-t) (400 mg, Day 14, 400 mg QD oral, Japanese, read-out: AUC(0-24 h) Mean (SD))?
Answer: 42900 ng·h/mL

Question: What about the AUC(0-t) (400 mg, Day 14, 400 mg QD oral, Japanese, read-out: AUC(0-24 h) Median) of the same molecule?
Answer: 43200 ng·h/mL

Question: And the AUC(0-inf) (400 mg, Day 14, 400 mg QD oral, Japanese, read-out: AUC(0-inf) GM (% CV))?
Answer: 122000 ng·h/mL

Question: What about the AUC(0-inf) (400 mg, Day 14, 400 mg QD oral, Japanese, read-out: AUC(0-inf) Mean (SD)) of the same molecule?
Answer: 125000 ng·h/mL

Question: And the AUC(0-inf) (400 mg, Day 14, 400 mg QD oral, Japanese, read-out: AUC(0-inf) Median)?
Answer: 120000 ng·h/mL

Question: And the Cmax (400 mg, Day 14, 400 mg QD oral, Japanese, read-out: Cmax GM (% CV))?
Answer: 3080 ng/mL

Question: What about the Cmax (400 mg, Day 14, 400 mg QD oral, Japanese, read-out: Cmax Mean (SD)) of the same molecule?
Answer: 3100 ng/mL

Question: What about the Cmax (400 mg, Day 14, 400 mg QD oral, Japanese, read-out: Cmax Median) of the same molecule?
Answer: 3250 ng/mL

Question: What about the Tmax (400 mg, Day 14, 400 mg QD oral, Japanese) of the same molecule?
Answer: 1.5 h

Question: And the AUC(0-t) (400 mg, Day 14, 400 mg QD oral, Non-Japanese, read-out: AUC(0-24 h) GM (% CV))?
Answer: 39200 ng·h/mL

Question: What about the AUC(0-t) (400 mg, Day 14, 400 mg QD oral, Non-Japanese, read-out: AUC(0-24 h) Mean (SD)) of the same molecule?
Answer: 40300 ng·h/mL

Question: What about the AUC(0-t) (400 mg, Day 14, 400 mg QD oral, Non-Japanese, read-out: AUC(0-24 h) Median) of the same molecule?
Answer: 43900 ng·h/mL

Question: What about the AUC(0-inf) (400 mg, Day 14, 400 mg QD oral, Non-Japanese, read-out: AUC(0-inf) GM (% CV)) of the same molecule?
Answer: 121000 ng·h/mL

Question: What about the AUC(0-inf) (400 mg, Day 14, 400 mg QD oral, Non-Japanese, read-out: AUC(0-inf) Mean (SD)) of the same molecule?
Answer: 135000 ng·h/mL

Question: What about the AUC(0-inf) (400 mg, Day 14, 400 mg QD oral, Non-Japanese, read-out: AUC(0-inf) Median) of the same molecule?
Answer: 141000 ng·h/mL

Question: What about the Cmax (400 mg, Day 14, 400 mg QD oral, Non-Japanese, read-out: Cmax GM (% CV)) of the same molecule?
Answer: 2740 ng/mL

Question: What about the Cmax (400 mg, Day 14, 400 mg QD oral, Non-Japanese, read-out: Cmax Mean (SD)) of the same molecule?
Answer: 2820 ng/mL

Question: What about the Cmax (400 mg, Day 14, 400 mg QD oral, Non-Japanese, read-out: Cmax Median) of the same molecule?
Answer: 3050 ng/mL

Question: And the Tmax (400 mg, Day 14, 400 mg QD oral, Non-Japanese)?
Answer: 1.79 h
